Assay results: ChEMBL document CHEMBL3885881, “DrugMatrix”

Species on record: Rattus norvegicus
Assay: DrugMatrix - Regimen: Daily Repeat
Assay type: toxicity, organism-based, Sprague-Dawley
Parameters: regimen Daily Repeat, gender Male, age 6-8 weeks
Details: in vivo, po, route oral GAVAGE, vehicle 100 % WATER; for ABSOLUTE BASOPHIL / ABSOLUTE EOSINOPHIL / ABSOLUTE LYMPHOCYTE / ABSOLUTE MONOCYTE / ABSOLUTE SEGMENTED NEUTROPHIL / BASOPHIL / EOSINOPHIL / ERYTHROCYTE COUNT / HEMATOCRIT / HEMOGLOBIN / LEUKOCYTE COUNT / LYMPHOCYTE / MEAN CORPUSCULAR HEMOGLOBIN / MEAN CORPUSCULAR HEMOGLOBIN CONCENTRATION / MEAN CORPUSCULAR VOLUME / MONOCYTE / NEUTROPHIL / NUCLEATED RED BLOOD CELLS / PLATELET COUNT: tissue Blood; for ALANINE AMINOTRANSFERASE / ALBUMIN / ALKALINE PHOSPHATASE / ASPARTATE AMINOTRANSFERASE / BLOOD UREA NITROGEN / CARBON DIOXIDE / CHLORIDE / CHOLESTEROL / CREATINE PHOSPHOKINASE / CREATININE / GLUCOSE / LACTATE DEHYDROGENASE / LIPASE / PHOSPHORUS / POTASSIUM / SODIUM / TOTAL BILIRUBIN / TOTAL PROTEIN / URIC ACID: tissue Plasma
[1] = 20 mg/kg, 72 h, dose level Low, time 3 day
[2] = 20 mg/kg, 120 h, dose level Low, time 5 day
[3] = 2000 mg/kg, 72 h, dose level High, time 3 day
[4] = 2000 mg/kg, 120 h, dose level High, time 5 day

For C[C@H]1O[C@H](O[C@H]2[C@H](O)[C@@H](O)[C@@H](O[C@H]3[C@H](O)[C@@H](O)C(O)O[C@@H]3CO)O[C@@H]2CO)[C@H](O)[C@@H](O)[C@@H]1N[C@H]1C=C(CO)[C@@H](O)[C@H](O)[C@H]1O (some centres not stated) [ACARBOSE], the “ABSOLUTE BASOPHIL” value [1] was 0 CELLS/uL, the “ABSOLUTE EOSINOPHIL” value [1] was 64.67 CELLS/uL and the “ABSOLUTE LYMPHOCYTE” value [1] was 10120.67 CELLS/uL. For the same compound, the “ABSOLUTE MONOCYTE” value [1] was 0 CELLS/uL, the “ABSOLUTE SEGMENTED NEUTROPHIL” value [1] was 948 CELLS/uL and the BASOPHIL [1] was 0%. For the same compound, the EOSINOPHIL [1] was 0.67%, the “ERYTHROCYTE COUNT” value [1] was 5.03 x10E6/uL and the HEMATOCRIT [1] was 31.8%. For the same compound, the HEMOGLOBIN [1] was 12.87 G/DL, the “LEUKOCYTE COUNT” value [1] was 11.13 x10E3/uL and the LYMPHOCYTE [1] was 91.33%. The “MEAN CORPUSCULAR HEMOGLOBIN” value [1] was 25.6 pg, the “MEAN CORPUSCULAR HEMOGLOBIN CONCENTRATION” value [1] was 40.47 G/DL and the “MEAN CORPUSCULAR VOLUME” value [1] was 63.17 fL. For the same compound, the MONOCYTE [1] was 0%, the NEUTROPHIL [1] was 8% and the “NUCLEATED RED BLOOD CELLS” value [1] was 0 /100WBC. The “PLATELET COUNT” value [1] was 1088.33 x10E3/uL, the “ALANINE AMINOTRANSFERASE” value [1] was 51.33 u/L and the ALBUMIN [1] was 4.1 G/DL. The “ALKALINE PHOSPHATASE” value [1] was 389.33 u/L, the “ASPARTATE AMINOTRANSFERASE” value [1] was 87.67 u/L and the “BLOOD UREA NITROGEN” value [1] was 16.67 mg/dL. The “CARBON DIOXIDE” value [1] was 24.33 mmol/L, the CHLORIDE [1] was 102.33 MEQ/L and the CHOLESTEROL [1] was 70.33 mg/dL. For the same compound, the “CREATINE PHOSPHOKINASE” value [1] was 377 u/L, the CREATININE [1] was 0.18 mg/dL and the GLUCOSE [1] was 148.33 mg/dL. For the same compound, the “LACTATE DEHYDROGENASE” value [1] was 368.33 u/L, the LIPASE [1] was 8.33 u/L and the PHOSPHORUS [1] was 14.03 mg/dL. The POTASSIUM [1] was 6.96 MEQ/L, the SODIUM [1] was 145.97 MEQ/L and the “TOTAL BILIRUBIN” value [1] was 0.23 mg/dL. For the same compound, the “TOTAL PROTEIN” value [1] was 5.73 G/DL, the “URIC ACID” value [1] was 1.43 mg/dL and the “ABSOLUTE BASOPHIL” value [2] was 0 CELLS/uL. For the same compound, the “ABSOLUTE EOSINOPHIL” value [2] was 33.67 CELLS/uL, the “ABSOLUTE LYMPHOCYTE” value [2] was 11112 CELLS/uL and the “ABSOLUTE MONOCYTE” value [2] was 101.33 CELLS/uL. For the same compound, the “ABSOLUTE SEGMENTED NEUTROPHIL” value [2] was 919.67 CELLS/uL, the BASOPHIL [2] was 0% and the EOSINOPHIL [2] was 0.33%. The “ERYTHROCYTE COUNT” value [2] was 5.14 x10E6/uL, the HEMATOCRIT [2] was 33.7% and the HEMOGLOBIN [2] was 13.33 G/DL. For the same compound, the “LEUKOCYTE COUNT” value [2] was 12.17 x10E3/uL, the LYMPHOCYTE [2] was 91% and the “MEAN CORPUSCULAR HEMOGLOBIN” value [2] was 26 pg. For the same compound, the “MEAN CORPUSCULAR HEMOGLOBIN CONCENTRATION” value [2] was 39.57 G/DL, the “MEAN CORPUSCULAR VOLUME” value [2] was 65.63 fL and the MONOCYTE [2] was 1%. For the same compound, the NEUTROPHIL [2] was 7.67%, the “NUCLEATED RED BLOOD CELLS” value [2] was 1 /100WBC and the “PLATELET COUNT” value [2] was 1353.33 x10E3/uL. For the same compound, the “ALANINE AMINOTRANSFERASE” value [2] was 52.33 u/L, the ALBUMIN [2] was 4.4 G/DL and the “ALKALINE PHOSPHATASE” value [2] was 361.67 u/L. For the same compound, the “ASPARTATE AMINOTRANSFERASE” value [2] was 74.67 u/L, the “BLOOD UREA NITROGEN” value [2] was 17.33 mg/dL and the “CARBON DIOXIDE” value [2] was 27.33 mmol/L. The CHLORIDE [2] was 101.33 MEQ/L, the CHOLESTEROL [2] was 74 mg/dL and the “CREATINE PHOSPHOKINASE” value [2] was 186 u/L. The CREATININE [2] was 0.17 mg/dL, the GLUCOSE [2] was 180.33 mg/dL and the “LACTATE DEHYDROGENASE” value [2] was 91.33 u/L. The LIPASE [2] was 8.67 u/L, the PHOSPHORUS [2] was 13.03 mg/dL and the POTASSIUM [2] was 6.7 MEQ/L. The SODIUM [2] was 145.5 MEQ/L, the “TOTAL BILIRUBIN” value [2] was 0.2 mg/dL and the “TOTAL PROTEIN” value [2] was 6.1 G/DL. The “URIC ACID” value [2] was 1.6 mg/dL, the “ABSOLUTE BASOPHIL” value [3] was 0 CELLS/uL and the “ABSOLUTE EOSINOPHIL” value [3] was 47 CELLS/uL. The “ABSOLUTE LYMPHOCYTE” value [3] was 15977.33 CELLS/uL, the “ABSOLUTE MONOCYTE” value [3] was 106.67 CELLS/uL and the “ABSOLUTE SEGMENTED NEUTROPHIL” value [3] was 835.67 CELLS/uL. The BASOPHIL [3] was 0%, the EOSINOPHIL [3] was 0.33% and the “ERYTHROCYTE COUNT” value [3] was 5.96 x10E6/uL. For the same compound, the HEMATOCRIT [3] was 39.13%, the HEMOGLOBIN [3] was 15.37 G/DL and the “LEUKOCYTE COUNT” value [3] was 16.97 x10E3/uL. For the same compound, the LYMPHOCYTE [3] was 94%, the “MEAN CORPUSCULAR HEMOGLOBIN” value [3] was 25.73 pg and the “MEAN CORPUSCULAR HEMOGLOBIN CONCENTRATION” value [3] was 39.27 G/DL. The “MEAN CORPUSCULAR VOLUME” value [3] was 65.6 fL, the MONOCYTE [3] was 0.67% and the NEUTROPHIL [3] was 5%. For the same compound, the “NUCLEATED RED BLOOD CELLS” value [3] was 1 /100WBC, the “PLATELET COUNT” value [3] was 1523.33 x10E3/uL and the “ALANINE AMINOTRANSFERASE” value [3] was 43 u/L. The ALBUMIN [3] was 4.63 G/DL, the “ALKALINE PHOSPHATASE” value [3] was 324.67 u/L and the “ASPARTATE AMINOTRANSFERASE” value [3] was 88 u/L. For the same compound, the “BLOOD UREA NITROGEN” value [3] was 20.33 mg/dL, the “CARBON DIOXIDE” value [3] was 28.33 mmol/L and the CHLORIDE [3] was 105.67 MEQ/L. The CHOLESTEROL [3] was 86 mg/dL, the “CREATINE PHOSPHOKINASE” value [3] was 443.33 u/L and the CREATININE [3] was 0.21 mg/dL. The GLUCOSE [3] was 160.67 mg/dL, the “LACTATE DEHYDROGENASE” value [3] was 447.33 u/L and the LIPASE [3] was 10 u/L. It also gave a PHOSPHORUS [3] of 14.07 mg/dL, a POTASSIUM [3] of 7.15 MEQ/L and an SODIUM [3] of 150.93 MEQ/L. For the same compound, the “TOTAL BILIRUBIN” value [3] was 0.1 mg/dL, the “TOTAL PROTEIN” value [3] was 6.8 G/DL and the “URIC ACID” value [3] was 2.5 mg/dL. For the same compound, the “ABSOLUTE BASOPHIL” value [4] was 0 CELLS/uL, the “ABSOLUTE EOSINOPHIL” value [4] was 0 CELLS/uL and the “ABSOLUTE LYMPHOCYTE” value [4] was 17167.33 CELLS/uL. The “ABSOLUTE MONOCYTE” value [4] was 176.67 CELLS/uL, the “ABSOLUTE SEGMENTED NEUTROPHIL” value [4] was 1189.33 CELLS/uL and the BASOPHIL [4] was 0%. For the same compound, the EOSINOPHIL [4] was 0%, the “ERYTHROCYTE COUNT” value [4] was 5.82 x10E6/uL and the HEMATOCRIT [4] was 35.33%. The HEMOGLOBIN [4] was 14.37 G/DL, the “LEUKOCYTE COUNT” value [4] was 18.53 x10E3/uL and the LYMPHOCYTE [4] was 92.33%. For the same compound, the “MEAN CORPUSCULAR HEMOGLOBIN” value [4] was 24.67 pg, the “MEAN CORPUSCULAR HEMOGLOBIN CONCENTRATION” value [4] was 40.67 G/DL and the “MEAN CORPUSCULAR VOLUME” value [4] was 60.77 fL. The MONOCYTE [4] was 1%, the NEUTROPHIL [4] was 6.67% and the “NUCLEATED RED BLOOD CELLS” value [4] was 0 /100WBC. The “PLATELET COUNT” value [4] was 1249.33 x10E3/uL, the “ALANINE AMINOTRANSFERASE” value [4] was 68 u/L and the ALBUMIN [4] was 4.23 G/DL. For the same compound, the “ALKALINE PHOSPHATASE” value [4] was 385.33 u/L, the “ASPARTATE AMINOTRANSFERASE” value [4] was 101.67 u/L and the “BLOOD UREA NITROGEN” value [4] was 21.67 mg/dL. For the same compound, the “CARBON DIOXIDE” value [4] was 33.67 mmol/L, the CHLORIDE [4] was 102.33 MEQ/L and the CHOLESTEROL [4] was 76.67 mg/dL. The “CREATINE PHOSPHOKINASE” value [4] was 356 u/L, the CREATININE [4] was 0.23 mg/dL and the GLUCOSE [4] was 153.67 mg/dL. For the same compound, the “LACTATE DEHYDROGENASE” value [4] was 345 u/L, the LIPASE [4] was 10.33 u/L and the PHOSPHORUS [4] was 12.8 mg/dL. For the same compound, the POTASSIUM [4] was 7.54 MEQ/L, the SODIUM [4] was 145.93 MEQ/L and the “TOTAL BILIRUBIN” value [4] was 0.1 mg/dL. For the same compound, the “TOTAL PROTEIN” value [4] was 5.93 G/DL and the “URIC ACID” value [4] was 1.6 mg/dL.
